These results are taken from patent US20040039211A1, “Tetrapyrroles” (DUKE UNIVERSITY AND NATIONAL JEWISH MEDICAL AND RESEARCH …, priority 2000, published 2004).

A short description of series [1]: Hydrolysis / dissociation of the complex in methanol/aqueous or water solution. The series is classed as physicochemical. The protocol: Uv/vis Spectroscopy. […] Also the effects of EDTA, H2O2, and the methanol/water ratio on the stability of the manganese(III) complex were examined. […] […] 79:699 (1960)). When needed the biliverdin and biliverdin dimethylester as well as their reduced forms bilirubin and bilirubin dimethylester were studied. […] In a week, at 25° C., only 14% of the complex dissociated. When the water content was increased to 43%, half the complex dissociated in a week.

Series [2] can be described thus: Cyclic voltammetry, metal-centered redox potential. The series is classed as physicochemical. Particulars: 90/10 (v/v) methanol/aqueous solution, pH* 7.9. The protocol: Manganese(III) Salen. The compound was prepared by the published procedure (Boucher, J. lnorg. Nucl. Chem. 36:531 (1974)). The uv/vis in water: ε235=3.70×10^4 cm^−1 M^−1, ε279=1.70×10^4 cm^−1 M^−1, ε397=4.60×10^3 cm^−M^−1. The elemental analysis: Anal. Calcd for Mn^IIIsalenCl, C16H14N2O2MnCl: C, 53.88; H, 3.96; N; 7.85. Found: C, 54.02; H, 4.06; N, 7.85. […] Based on the E1/2 of Mn^IIITM-2-PyP^5+, ferrocenemethanol and of K3Fe(CN)6 in water and methanol, the redox potential of Mn^III salen^+ in water was calculated to be E1/2=−0.13 V vs NHE.
Electrochemistry of the Manganese(III) Biliverdin Dimethylester. Measurements were made using a CH Instruments model 600 voltammetric analyzer as described previously(Batinic-Haberle et al, Inorg. Chem. 38:4011 (1999)). A three-electrode system in a small volume (0.5-3.0 mL), with a 3 mm diameter glassy carbon button working electrode (Bioanalytical Systems), Ag/AgCl reference electrode (3 M NaCl, Bioanalytical Systems), and a Pt wire (0.5 mm) as auxiliary electrode, were used. The cyclic votammetry was performed on 0.5 mM (per manganese) methanol/aqueous (90/10, v/v) solutions of the compounds investigated. The ionic strength was kept at 0.10 M (NaCl), and 0.05 M tris buffer was used for pH^* adjustment. For calibration purposes, compounds of different hydrophilicities, […], (Kolthof et al, J. Phys. Chem. 39:945 (1935)) ferrocenemethanol and Mn^IIITM-2-PyP^5+ were studied in both aqueous and methanol/aqueous (90/10, v/v) solutions (I=0.10 M NaCl, 0.05 M tris buffer, pH^* 7.9). In all cases the measured E1/2 was 170 mV more positive in methanolic than in aqueous solution and this value was used to predict the redox potential in aqueous solution from measurement in methanol/aqueous solution.

Series [3] can be described thus: Solubility. It counts as physicochemical.
For series [4], the system named is SOD-deficient E. coli JI132. Put plainly: Aerobic growth of SOD-deficient E. coli in minimal medium. The series is classed as cell-based. The protocol: FIG. 13. […] The 20 mM ethanolic/albumin solution of compound was diluted into the medium. Also the growth of SOD-deficient E. coli was followed in the presence of 0.15% ethanol only (squares).
SOD activity can be monitored in the presence and absence of EDTA using the method of McCord and Fridovich (J. Biol. Chem. 244:6049 (1969)). The efficacy of a mimetic can also be determined by measuring the effect of the mimetic on the aerobic growth of a SOD null E. coli strain versus a parent strain. Specifically, parental E. coli (AB1157) and SOD null E. coli. […]
Effects on E. coli. E. coli strains AB1157 (SOD-proficient, wild type) and JI132 (SOD-deficient, sodAsodB) were obtained from J. A. Imlay (Imlay et al, J. Bacteriol. 169:2967 (1987)). […] Cultures were treated as previously described (Faulkner et al, J. Biol. Chem. 269:23471 (1994); Benov et al, J. Biol. Chem. 273:10313 (1998)). Due to the low water solubility, the compounds were solubilized with albumin in medium at a 1:1 molar ratio. Albumin itself had no effect on growth in the concentration range employed. Since methanol was toxic to the SOD-deficient strain of E. coli even when present in medium at 0.15%, the stock solutions of the compounds were prepared in ethanol.

A short description of series [5]: SOD activity, xanthine oxidase/cytochrome c method. It counts as biochemical. The conditions noted are these: for kcat, O2^− dismutation: competition with 10 μM cytochrome c, pH 7.8, 25° C. The protocol:
FIG. 12. […] The v0 is the rate of reduction of 10 μM cytochrome c by O2. The vi is the rate of reduction of cytochome c inhibited by the porphyrin catalyst in the presence of 0.1 mM EDTA in 0.05 M tris buffer at pH 7.8. 40 μM xanthine. ˜2 nM xanthine oxidase at 25° C. The total volume of the assay solution is 3 mL.
SOD Activity. Catalysis of the dismutating of O2 in vitro was followed by the xanthine oxidase/cytochrome c method (McCord et al, J. Biol. Chem. 244:6049 (1969)).
Dismutation of superoxide anion, O2^−. Assays were conducted in 0.05 M aqueous phosphate buffer, pH 7.8, 0.1 mM EDTA, ±15 μg/mL of catalase, ±albumin. Rate constants for the reaction with O2^−were based upon the competition of the compounds with cytochrome c.
Two metallotetrapyrroles were tested for antioxidant activity, in vitro. In particular, the compounds were assayed for their ability to dismutate superoxide in the indirect method that utilizes xanthine and xanthine oxidase to generate superoxide and cytochrome c reduction as indicator of superoxide flux. […] The compounds were also assayed for their ability to prevent lipid peroxidation of rat brain homogenates by iron and ascorbate. The mixture of iron and ascorbate generates reactive oxygen species that oxidize biological lipids and these oxidized lipids can be detected as species that react with thiobarbituric acid (TBARS).
a) SOD activity determined using a xanthine oxidase/cytochrome c assay

Series [6] can be described thus: Reactivity towards nitric oxide (uv/vis). Particulars: 14 μM, 90-fold excess NO, 90/10 methanol/PBS, 1 hour. The series is classed as physicochemical.

Turning to “Manganese(III) Biliverdin IX Dimethylester [{Mn^IIIBVDME}2]”, the “fraction of complex dissociated (hydrolysis)” value in series [1] (90/10 methanol/aqueous, pH* 7.9, one week, 25° C.) is given as 14%; in series [1] (water content 43%, one week), “half”. Moreover, the “E1/2, V vs Ag/AgCl” value in series [2] (Mn(III)/Mn(II) couple) is listed as −0.32 V vs Ag/AgCl; in series [2] (Mn(III)/Mn(IV) couple), “+0.36 V vs Ag/AgCl”; in series [2] (Mn(III)/Mn(IV) couple, listed as ½ {Mn^III/IVBVDME^0/−}2), −0.36 V vs Ag/AgCl. Moreover, the “solubility in organic solvents” value in series [3] (ethanol, methanol) is “soluble in ethanol and methanol”. In series [3] (water), the solubility in water is on record as ~10^−8 M. Also, in series [4] (13 μM, after 15 hours, SOD-proficient 100%, SOD-deficient without compound 16%), the “growth of SOD-deficient E. coli” value is reported as 50%. Also, the “growth of SOD-deficient E. coli (in words)” value in series [4] (0.1 to 13 μM in minimal medium) is “markedly improved”. The “effect on SOD-deficient E. coli growing under aerobic conditions (in words)” value in series [4] (minimal (five amino acids) medium) was “significant protection”. In addition, the “specific activity (SOD mimetic)” value in series [5] is 10,700 units/mg. Also, the “effect of albumin on SOD-like activity” value in series [5] (1:1 albumin to compound ratio) was “no negative effect of albumin was observed”. Besides, in series [5] (albumin to compound ratio 3), the “decrease of SOD-like activity in the presence of albumin” value was found to be 50%. Also, the SOD specific activity in series [5] (per manganese, 1 unit = quantity (mg) per 3.0 mL causing 50% inhibition of reduction of 10 μM cytochrome c) was determined as 10700 U/mg. For the same substance, the “kcat, O2^− dismutation” value is 5.5e+07 M⁻¹ s⁻¹ in series [5] (per manganese); 5.5e+07 M⁻¹ s⁻¹ in series [5] (per manganese, listed as compound of FIG. 2C); 5.5e+07 M⁻¹ s⁻¹ in series [5] (per manganese, listed as ½ {Mn^III/IVBVDME^0/−}2). For the same substance, in series [5] (xanthine oxidase/cytochrome c assay), the “SOD Activity” value is listed as 10,700 USOD/mg. Also, the “reactivity towards NO (change of spectrum)” value in series [6] is on record as “No change in the spectrum”; in series [6] (listed as compound of FIG. 2C) it was “No reactivity towards NO has been detected”.
